# Literature values in article PMC9182199, “Borylated 2,3,4,5-Tetrachlorophthalimide and Their 2,3,4,5-Tetrachlorobenzamide Analogues: Synthesis, Their Glycosidase Inhibition and Anticancer Properties in View to Boron Neutron Capture Therapy” (Molecules, 2022).
# Key:
# rat = test system: rat; set-up: method as in earlier work; details: oral; cited from earlier work
# yeast α-glucosidase = target: T1, yeast α-glucosidase (Saccharomyces cerevisiae, UniProt P53341); set-up: method as in PMID 18254235; details: cited from earlier work
# T1 construct: purchased Sigma
# T1 sequence (P53341 whole entry): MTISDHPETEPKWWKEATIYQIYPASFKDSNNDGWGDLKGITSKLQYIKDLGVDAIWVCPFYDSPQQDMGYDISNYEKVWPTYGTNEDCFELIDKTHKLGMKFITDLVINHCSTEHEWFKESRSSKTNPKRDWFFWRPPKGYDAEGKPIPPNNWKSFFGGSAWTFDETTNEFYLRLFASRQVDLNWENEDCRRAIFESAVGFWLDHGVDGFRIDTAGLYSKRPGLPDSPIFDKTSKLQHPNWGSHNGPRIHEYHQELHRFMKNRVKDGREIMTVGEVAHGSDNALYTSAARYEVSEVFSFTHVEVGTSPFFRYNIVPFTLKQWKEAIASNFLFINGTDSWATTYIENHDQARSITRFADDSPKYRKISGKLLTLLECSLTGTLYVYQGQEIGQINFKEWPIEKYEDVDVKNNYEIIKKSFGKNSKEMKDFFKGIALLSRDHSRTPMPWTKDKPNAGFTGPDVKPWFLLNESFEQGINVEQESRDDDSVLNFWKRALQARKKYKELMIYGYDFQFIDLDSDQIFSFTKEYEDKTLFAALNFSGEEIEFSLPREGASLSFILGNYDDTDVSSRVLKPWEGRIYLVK
# maltase = target: maltase; set-up: method as in PMID 18254235; details: cited from earlier work
# sucrase = test system: sucrase; set-up: method as in PMID 18254235; details: cited from earlier work
# human [1] = details: oral; cited from earlier work
# human [2] = details: 5 min; cited from earlier work
# [3] = cited from earlier work
smiles,measurement,setting,value
OB(O)c1ccccc1 [phenylboronic acid],LD50,rat,740 mg/kg
"O=C1c2ccccc2C(=O)N1c1ccc([N+](=O)[O-])cc1[N+](=O)[O-] [N-(2,4-dinitrophenyl)phthalimide]",IC50,yeast α-glucosidase,158 µM
same,IC50,maltase,51 µM
same,inhibition of sucrase,sucrase,no inhibition
c1ccccc1 [benzene],LD50 (lethal dose),human [1],125 mg/kg
same,LCLO (lethal concentration),human [2],"20,000 ppm"
same,Immediately Dangerous to Life and Health concentration,[3],500 ppm
same,Recommended Exposure Limit,[3],0.1 ppm
